Laboratory results reported in US8952024B2, “Herbicidal pyrimidone derivatives” (E I du Pont de Nemours and Company, priority 2009, dated 2015).

Experiments:
Format in all cases: in vivo
[1] = tested on: Italian ryegrass (Lolium multiflorum); assay: Test B pre-/postemergence plant response
Summary of the method: (§1)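 Each species received compound formulated in non-phytotoxic solvent with surfactant, either at planting into a loam and sand blend or as a foliar spray once plants reached 2 to 18 cm in peat-based medium. Plants stayed in the greenhouse 13 to 15 days before visual evaluation against controls, scored 0 (no effect) to 100 (complete control).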

[2] = tested on: bermudagrass (Cynodon dactylon); assay: Test B pre-/postemergence plant response
Summary of the method: as §1

[3] = tested on: blackgrass (Alopecurus myosuroides); assay: Test B pre-/postemergence plant response
Summary of the method: as §1

corn (Zea mays) = assay: Test B pre-/postemergence plant response
Summary of the method: as §1

[4] = tested on: downy bromegrass (Bromus tectorum); assay: Test B pre-/postemergence plant response
Summary of the method: as §1

[5] = tested on: giant foxtail (Setaria faberii); assay: Test B pre-/postemergence plant response
Summary of the method: as §1

[6] = tested on: goosegrass (Eleusine indica); assay: Test B pre-/postemergence plant response
Summary of the method: as §1

[7] = tested on: green foxtail (Setaria viridis); assay: Test B pre-/postemergence plant response
Summary of the method: as §1

[8] = tested on: johnsongrass (Sorghum halepense); assay: Test B pre-/postemergence plant response
Summary of the method: as §1

[9] = tested on: morningglory (Ipomoea coccinea); assay: Test B pre-/postemergence plant response
Summary of the method: as §1

[10] = tested on: pigweed (Amaranthus retroflexus); assay: Test B pre-/postemergence plant response
Summary of the method: as §1

[11] = tested on: ragweed (common ragweed, Ambrosia elatior); assay: Test B pre-/postemergence plant response
Summary of the method: as §1

soybean (Glycine max) = assay: Test B pre-/postemergence plant response
Summary of the method: as §1

[12] = tested on: velvetleaf (Abutilon theophrasti); assay: Test B pre-/postemergence plant response
Summary of the method: as §1

[13] = tested on: wheat (Triticum aestivum); assay: Test B pre-/postemergence plant response
Summary of the method: as §1

[14] = tested on: canarygrass (Phalaris minor); assay: Test B postemergence plant response
Summary of the method: (§2)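 Visual ratings from 0 (no effect) to 100 (complete control), made against controls 13–15 days after treatment, kept in a greenhouse. Compounds were applied postemergence to potted plants at the 1- to 4-leaf stage (2–18 cm).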

[15] = tested on: chickweed (Stellaria media); assay: Test B postemergence plant response
Summary of the method: as §2

[16] = tested on: winter barley (Hordeum vulgare); assay: Test B postemergence plant response
Summary of the method: as §2

[17] = 31 g ai/ha, postemergence, scale 0 to 100, 0 is no effect, 100 is complete control
[18] = 62 g ai/ha, postemergence, 0 is no effect, 100 is complete control, 13 to 15 days
[19] = Postemergence, 125 g ai/ha, visual rating after 13 to 15 days, scale 0 (no effect) to 100 (complete control)
[20] = Postemergence, 250 g ai/ha, scale 0 to 100 (0 no effect, 100 complete control)

CCCc1ncc(C(=O)C2=C(O)CCCC2=O)c(=O)n1-c1cccc(C)c1 [Compound 79]
Plant response rating, Ryegrass, Italian [1, 17]: 20
Ryegrass, Italian plant response rating (0 to 100 scale) [1, 18]: 20
Plant response rating, Ryegrass, Italian [1, 19]: 50
Plant response rating, Ryegrass, Italian [1, 20]: 55
Plant response rating, Bermudagrass [2, 17]: 80
Bermudagrass plant response rating (0 to 100 scale) [2, 18]: 80
Plant response rating, Bermudagrass [2, 19]: 85
Plant response rating, Bermudagrass [2, 20]: 85
Plant response rating, Blackgrass [3, 17]: 5
Blackgrass plant response rating (0 to 100 scale) [3, 18]: 15
Plant response rating, Blackgrass [3, 19]: 30
Plant response rating, Blackgrass [3, 20]: 45
Plant response rating, Corn (corn (Zea mays); [17]): 5
Corn plant response rating (0 to 100 scale) (corn (Zea mays); [18]): 45
Plant response rating, Corn (corn (Zea mays); [19]): 60
Plant response rating, Corn (corn (Zea mays); [20]): 75
Plant response rating, Bromegrass, Downy [4, 17]: 5
Bromegrass, Downy plant response rating (0 to 100 scale) [4, 18]: 10
Plant response rating, Bromegrass, Downy [4, 19]: 30
Plant response rating, Bromegrass, Downy [4, 20]: 65
Plant response rating, Foxtail, Giant [5, 17]: 70
Foxtail, Giant plant response rating (0 to 100 scale) [5, 18]: 75
Plant response rating, Foxtail, Giant [5, 19]: 95
Plant response rating, Foxtail, Giant [5, 20]: 95
Plant response rating, Goosegrass [6, 17]: 45
Goosegrass plant response rating (0 to 100 scale) [6, 18]: 65
Plant response rating, Goosegrass [6, 19]: 70
Plant response rating, Goosegrass [6, 20]: 80
Plant response rating, Foxtail, Green [7, 17]: 60
Foxtail, Green plant response rating (0 to 100 scale) [7, 18]: 60
Plant response rating, Foxtail, Green [7, 19]: 80
Plant response rating, Foxtail, Green [7, 20]: 98
Plant response rating, Johnsongrass [8, 17]: 0
Johnsongrass plant response rating (0 to 100 scale) [8, 18]: 65
Plant response rating, Johnsongrass [8, 19]: 70
Plant response rating, Johnsongrass [8, 20]: 75
Plant response rating, Morningglory [9, 17]: 80
Morningglory plant response rating (0 to 100 scale) [9, 18]: 95
Plant response rating, Morningglory [9, 19]: 100
Plant response rating, Morningglory [9, 20]: 100
Plant response rating, Pigweed [10, 17]: 100
Pigweed plant response rating (0 to 100 scale) [10, 18]: 100
Plant response rating, Pigweed [10, 19]: 100
Plant response rating, Pigweed [10, 20]: 100
Plant response rating, Ragweed [11, 17]: 80
Ragweed plant response rating (0 to 100 scale) [11, 18]: 85
Plant response rating, Ragweed [11, 19]: 95
Plant response rating, Ragweed [11, 20]: 98
Plant response rating, Soybean (soybean (Glycine max); [17]): 75
Soybean plant response rating (0 to 100 scale) (soybean (Glycine max); [18]): 90
Plant response rating, Soybean (soybean (Glycine max); [19]): 95
Plant response rating, Soybean (soybean (Glycine max); [20]): 98
Plant response rating, Velvetleaf [12, 17]: 95
Velvetleaf plant response rating (0 to 100 scale) [12, 18]: 98
Plant response rating, Velvetleaf [12, 19]: 98
Plant response rating, Velvetleaf [12, 20]: 100
Plant response rating, Wheat [13, 17]: 10
Wheat plant response rating (0 to 100 scale) [13, 18]: 25
Plant response rating, Wheat [13, 19]: 35
Plant response rating, Wheat [13, 20]: 40
Plant response rating, Canarygrass [14, 17]: 15
Canarygrass plant response rating (0 to 100 scale) [14, 18]: 30
Plant response rating, Canarygrass [14, 19]: 35
Plant response rating, Canarygrass [14, 20]: 50
Plant response rating, Chickweed [15, 17]: 80
Chickweed plant response rating (0 to 100 scale) [15, 18]: 95
Plant response rating, Chickweed [15, 19]: 95
Plant response rating, Chickweed [15, 20]: 98
Plant response rating, Barley [16, 17]: 5
Barley plant response rating (0 to 100 scale) [16, 18]: 30
Plant response rating, Barley [16, 19]: 35
Plant response rating, Barley [16, 20]: 55
